How the values were obtained:
HIV = settings: cited from earlier work
Recombinant MDH [1] = biological target: T1, Recombinant MDH (Apium graveolens, UniProt Q38707); assay: Relative reaction rates of substrates with recombinantly expressed MDH (NADH measured spectrophotometrically); type: biochemical; settings: MDH expressed recombinantly; D-mannitol = 100%
T1 construct: An MDH gene was synthetically constructed for expression E. coli; made in house; host or cells: E. coli BL21, pTTQ18 plasmid
Procedure: (§1) Many different variables were studied to maximize the expression and activity of MDH. MDH activity was monitored with the conversion of D-mannitol to D-mannose in the presence of NAD. The conversion was monitored spectrophotometrically by measuring the increasing concentration of NADH, the cofactor product of the oxidation of mannitol to mannose. For a given experiment, lysate protein concentrations were normalized.
(§2) Substrate specificity of the recombinant MDH was also tested and compared with the published data on the natively expressed MDH. Recombinant expression of MDH in E. coli could cause subtle modifications to the tertiary structure of MDH and modify the substrate specificity. Several known substrates of the MDH were tested.[16]

[2] = system: E. coli production strain with inactive PEP-dependent phosphotransferase system; assay: Polyol conversion in shake flasks by mutagenized PTS-inactive E. coli MDH strain, HPLC; type: cell-based
Source text: This can be accomplished by PCR-based genetic deletion of phosphocarrier protein ptsH, phosphotransferase system enzyme I ptsI, and the glucose specific enzyme IIA PTS component crr, but could be accomplished by other genetic manipulation including deletion of the polyol specific PTS type II genes or other genetic or biochemical manipulation known to those skilled in the art. These mutations render the production strain unable to metabolize or phosphorylatively uptake D-mannitol, galactitol, or D-sorbitol.
Flasks contained LB, ampicillin, 250 μM ZnCl2, and 40 g/L galactitol, D-mannitol, or D-sorbitol. Cells were induced with 0.5 mM IPTG after 4 hrs growth at 37° C. and the temperature was reduced to 25° C. After 6 days of incubation, D-mannose had been created from D-mannitol with 12% conversion. D-sorbitol conversion to L-gulose ceased after 7 days with a final conversion of 12%. Following 14 days of reaction, L-galactose had been produced from galactitol with 40% conversion. The final products were characterized by non-chiral HPLC in comparison to their D-counterparts. Optical rotation was obtained by polarimetry and used to verify stereochemistry. This resulting strain is further capable of converting D-arabitol to D-lyxose at 24% conversion.

Native MDH = biological target: T2, Native MDH (Apium graveolens, UniProt Q38707); settings: MDH expressed natively; D-mannitol = 100%; published data; cited from earlier work
T2 construct: compared with the published data on the natively expressed MDH; host or cells: celery (Apium graveolens), native expression

[3] = system: recombinant E. coli MDH strain; assay: Polyol bioconversion by the recombinant E. coli MDH strain, HPLC; type: cell-based; settings: strain with active phosphotransferase uptake system
Source text: It was hypothesized that the lack of conversion was due to the phosphotransferase uptake system for D-mannitol, galactitol, and D-sorbitol, which phosphorylates these polyols upon uptake.

Recombinant MDH [4] = biological target: T3, Recombinant MDH (Apium graveolens, UniProt Q38707, C47S/T120I); assay: Relative reaction rates of substrates with recombinantly expressed MDH (NADH measured spectrophotometrically); type: biochemical; settings: recombinant MDH
T3 construct: An MDH gene was synthetically constructed for expression E. coli; made in house; host or cells: E. coli BL21, pTTQ18 plasmid
Procedure: as §1, §2

[5] = biological target: T4, Apium gravelons mannitol-1-dehydrogenase (MDH) (Apium graveolens, UniProt Q38707, C47S/T120I); assay: MDH activity in lysate with added divalent metal salts; type: biochemical
T4 construct: An MDH gene was synthetically constructed for expression E. coli; made in house; host or cells: E. coli BL21, pTTQ18 plasmid
Procedure: While not explicitly described in the literature, Apium gravelons mannitol-1-dehydrogenase (MDH) requires divalent metal ions, particularly Zn^2+ ions, for activity. The presence of ZnSO4 increases MDH activity. Cells expressing MDH were grown in rich media were harvested and lysed with BUGBUSTER® protein extraction reagent, Novagen, Madison, Wis. MDH activity was then tested with increasing concentrations of ZnSO4 in the presence of D-mannitol and NAD cofactor at pH 9.0. See, FIG. 11.

[6] = system: recombinant E. coli expressing MDH; assay: Effect of Zn2+ on L-ribose production from ribitol; type: cell-based; settings: LB, 100 g/L ribitol, 0.5% glycerol
Procedure: The cultures are analyzed for production of L-ribose vs. time. The optimum production of L-ribose occurs between 0.15 and 1.5 mM Zn^2+ with the best conversion at 0.5 mM ZnCl2 (FIG. 14).

[7] = pH profile of MDH oxidation activity; type: biochemical; settings: relative to maximum at pH 9.0
Procedure: as §1
The pH profile for MDH for the oxidation reactions was also tested. […] This range could be beneficial for in vitro bioconversions with enzymatic NAD cofactor recycling methods. Increasing the activity of MDH at neutral pH could improve in vivo fermentation activity as the interior of the E. coli cell has a pH lower than 9.0.[21]

[8] = Thermostability of recombinant MDH in lysates; type: physicochemical; settings: after four hours of incubation at various temperatures, except at 25° C.
Procedure: The thermostability of recombinant MDH was also tested. Lysates containing MDH were incubated at various temperatures. Aliquots of MDH were removed at various times to measure MDH activity using the assay described above. See, FIG. 13.

[9] = MDH thermal stability: incubation at 43° C. followed by kinetic assay; type: physicochemical; settings: relative to WT
[10] = Fermentation of ribitol to L-ribose with wild-type MDH in E. coli; type: cell-based
Procedure: Because of the successes with the expression of MDH in E. coli, additional experiments were performed to determine the feasibility of the MDH system to produce L-ribose with MDH enzyme. Initial fermentation experiments were performed in shake-flasks using rich media and varying concentrations of ribitol. With 2% ribitol (w/v), the MDH-expressing strain converted approximately 25% of the ribitol to L-ribose with 48 hrs. The goal for this strain would be to have >90% conversion within 24-48 hrs.
One goal for the fermentation would be the synthesis of 100-150 g·L^−1 of L-ribose in 24-48 hrs with >90% conversion efficiency from ribitol. Initial fermentation results with the wild-type MDH show a productivity of approximately 35 g·L^−1 in 48 hrs with 30% ribitol converted.

Molecule: Nc1ccn(C2CSC(CO)O2)c(=O)n1 (racemic) [BCH-189, (±)-2,3-dideoxy-3′-thiacytidine]
- anti-HIV activity (HIV): anti-HIV activity

Molecule: OC[C@@H](O)C(O)[C@H](O)CO [D-Arabitol]
- Relative reaction rates, Recombinant MDH (Recombinant MDH [1]): 33%
- conversion of D-arabitol to D-lyxose [2]: 24%
- Relative reaction rates, Native MDH (Native MDH): 37%

Molecule: OC[C@@H](O)[C@@H](O)[C@H](O)[C@H](O)CO [D-Mannitol]
- Relative reaction rates, Recombinant MDH (Recombinant MDH [1]): 100%
- conversion of polyol to sugar detected by HPLC [3]: none was detected
- conversion of D-mannitol to D-mannose ([2]; 40 g/L polyol, 25° C., after 6 days): 12%
- Relative reaction rates, Native MDH (Native MDH): 100%

Molecule: OC[C@@H](O)[C@@H](O)[C@H](O)[C@@H](O)CO [D-Sorbitol]
- Relative reaction rates, Recombinant MDH (Recombinant MDH [1]): 5%
- conversion of polyol to sugar detected by HPLC [3]: none was detected
- final conversion of D-sorbitol to L-gulose ([2]; 40 g/L polyol, 25° C., ceased after 7 days): 12%
- Relative reaction rates, Native MDH (Native MDH): 22%

Molecule: OC[C@@H](O)[C@@H](O)CO [Erythritol]
- Relative reaction rates, Recombinant MDH (Recombinant MDH [1]): 4%
- Relative reaction rates, Native MDH (Native MDH): 16%

Molecule: C[C@H](O)[C@@H](O)[C@@H](O)[C@H](O)CO [L-fucitol]
- relative reaction rate, % the rate of D-mannitol (Recombinant MDH [4]): 10.5%

Molecule: O=S(=O)([O-])[O-].[Ni+2] [NiSO4]
- inhibition of MDH activity compared to MDH without NiSO4 ([5]; 0.1 mM NiSO4): approximately 50%

Molecule: OC[C@@H](O)[C@@H](O)[C@@H](O)CO [Ribitol]
- Relative reaction rates, Recombinant MDH (Recombinant MDH [1]): 50%
- Relative reaction rates, Native MDH (Native MDH): 36%

Molecule: Nc1ccn([C@@H]2CS[C@H](CO)O2)c(=O)n1 [Strain L-3TC]
- potency compared with the D-form of BCH-189 (HIV): more potent

Molecule: OC[C@@H](O)[C@H](O)[C@@H](O)CO [Xylitol]
- Relative reaction rates, Recombinant MDH (Recombinant MDH [1]): 1%
- Relative reaction rates, Native MDH (Native MDH): 0%

Molecule: [Cl-].[Cl-].[Zn+2] [ZnCl2]
- ZnCl2 concentration of best conversion [6]: 0.5 mM

Molecule: O=S(=O)([O-])[O-].[Zn+2] [Zn^2+]
- concentrations showing inhibition of MDH activity ([5]; D-mannitol, NAD, pH 9.0): above 1 μM
- increase of MDH activity compared to no added zinc ([5]; addition of 1 μM Zn2+, D-mannitol, NAD, pH 9.0): 50%

Molecule: OC[C@@H](O)[C@H](O)[C@H](O)[C@@H](O)CO [galactitol]
- conversion of polyol to sugar detected by HPLC [3]: none was detected
- conversion of galactitol to L-galactose ([2]; 40 g/L polyol, 25° C., 14 days): 40%

B1: MDH: NAD-dependent mannitol-1-dehydrogenase from Apium graveolens, SEQ ID NO:2, wild type, expressed in E. coli (protein)
chain: MAKSSEIEHPVKAFGWAARDTTGLLSPFKFSRRATGEKDVRLKVLFSGVCHSDHHMIHNNWGFTTYPIVPGHEIVGVVTEVGSKVEKVKVGDNVGIGCLVGSCRSCESCCDNRESHCENIIDTYGSIYFDGTMTHGGYSDTMVADEHFILRWPKNLPLDSGAPLLCAGITTYSPLKYYGLDKPGTKIGVVGLGGLGHVAVKMAKAFGAQVTVIDISESKRKEALEKLGADSFLLNSDQEQMKGARSSLDGIIDTVPVNHPLAPLFDLLKPNGKLVMVGAPEKPFELPVFSLLKGRKLLGGTINGGIKETQEMLDFAAKHNITADVEVIPMDYVNTAMERLVKSDVRYRFVIDIANTMRTEESLGA
- residual activity at pH 7.0 [7]: 10%
- loss of MDH activity on incubation of lysates [8]: Most MDH activity was lost
- Ratio T1/2 [9]: 1.0
- ribitol converted to L-ribose ([10]; 2% ribitol (w/v), shake-flask, 48 hrs): approximately 25%
- ribitol converted ([10]; 48 hrs): 30%
- productivity of L-ribose ([10]; in 48 hrs, unoptimized E. coli strain): approximately 35 g·L^−1

Reference: patent publication US20120021468A1, “PRODUCTION OF L-RIBOSE AND OTHER RARE SUGARS” (ZUCHEM, INC., priority 2008, published 2012)
